Assay results taken from PMC2954226, “Structure of the γ-D-glutamyl-L-diamino acid endopeptidase YkfC from Bacillus cereus in complex with L-Ala-γ-D-Glu: insights into substrate recognition by NlpC/P60 cysteine peptidases” (Acta Crystallographica Section F: Structural Biology and …, 2010).
Non-standard residues stand in square brackets, D forms with d. Residues, ends and D or L forms follow the SMILES beside them.

Molecular target: T1, BcYkfC (Bacillus cereus, UniProt Q736M3)
T1 construct: gene ykfC; signal peptide (residues 1-23) removed; N-terminal His tag cut by TEV leaving Gly0; selenomethionine protein from E. coli; SH3b1 (29-129), SH3b2 (130-207) and NlpC/P60 (208-333) domains; model 29-333; monomer
T1 sequence (Q736M3 24-333): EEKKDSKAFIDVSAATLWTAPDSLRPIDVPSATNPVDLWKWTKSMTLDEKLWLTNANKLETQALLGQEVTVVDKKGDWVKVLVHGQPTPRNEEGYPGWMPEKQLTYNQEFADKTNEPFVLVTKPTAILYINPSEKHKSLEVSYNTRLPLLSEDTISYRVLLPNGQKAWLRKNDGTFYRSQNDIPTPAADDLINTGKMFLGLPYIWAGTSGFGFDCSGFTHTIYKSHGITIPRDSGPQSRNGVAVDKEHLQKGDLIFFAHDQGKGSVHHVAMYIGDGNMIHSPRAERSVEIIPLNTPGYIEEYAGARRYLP
Experiment: X-ray crystal structure, […] Å (SeMet MAD)
Format: binding
Conditions: ligand co-purified, most likely from E. coli expression host; S2-S1 site; catalytic Cys238 oxidized (OCS), enzyme inactive in the crystal; crystallized at pH 4.2, 277 K

## C[C@H](N)C(=O)N[C@H](CCC(=O)O)C(=O)O [L-Ala-γ-D-Glu] (H-Ala-[dE]-OH)
  X-ray crystal structure, 1.79 Å (SeMet MAD): The dipeptide L-Ala-γ-D-Glu was identified from well defined electron density in the active site
